Data taken from patent publication US20260317314A1, “NITROGEN-CONTAINING HETEROCYCLIC COMPOUND AND USE THEREOF” (JIANGSU DEYUAN PHARMACEUTICAL CO.,LTD., priority 2023, published 2026).

What was measured:
[1] = In vivo pharmacokinetic study in cynomolgus monkeys; design: species or system cynomolgus monkey; settings: cynomolgus monkey, plasma, male cynomolgus monkeys, oral 1 mg/kg
[2] = Permeability test in MDR1-MDCKII monolayer cell model; format: in vitro ADME; settings: dog
Method in brief: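 Bidirectional transport of 2 μM compound across 4–7-day MDR1-MDCKII monolayers in HBSS with 10 mM HEPES pH 7.40, DMSO below 1%, 2.5 h at 37 °C. Quantified by LC-MS/MS. Papp calculated from receiver accumulation; efflux ratio = Papp(B-A)/Papp(A-B).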

[3] = Plasma protein binding rate test, human (equilibrium dialysis); format: in vitro ADME; settings: 37° C.
From the text: The sample was thoroughly mixed.

CYP1A2 = target: T1, CYP1A2 (Homo sapiens, UniProt P05177); assay: Human liver microsome CYP inhibition assay, CYP1A2; format: in vitro ADME; settings: role: inhibitor; human liver microsomes, probe substrate; read-out: CYP1A2 half maximal inhibitory concentration IC50
T1 construct: Mixed human liver microsomes (HLM) were purchased from Corning Inc; tissue Corning Inc; host or cells: mixed human liver microsomes (HLM)
T1 sequence (P05177 1-516): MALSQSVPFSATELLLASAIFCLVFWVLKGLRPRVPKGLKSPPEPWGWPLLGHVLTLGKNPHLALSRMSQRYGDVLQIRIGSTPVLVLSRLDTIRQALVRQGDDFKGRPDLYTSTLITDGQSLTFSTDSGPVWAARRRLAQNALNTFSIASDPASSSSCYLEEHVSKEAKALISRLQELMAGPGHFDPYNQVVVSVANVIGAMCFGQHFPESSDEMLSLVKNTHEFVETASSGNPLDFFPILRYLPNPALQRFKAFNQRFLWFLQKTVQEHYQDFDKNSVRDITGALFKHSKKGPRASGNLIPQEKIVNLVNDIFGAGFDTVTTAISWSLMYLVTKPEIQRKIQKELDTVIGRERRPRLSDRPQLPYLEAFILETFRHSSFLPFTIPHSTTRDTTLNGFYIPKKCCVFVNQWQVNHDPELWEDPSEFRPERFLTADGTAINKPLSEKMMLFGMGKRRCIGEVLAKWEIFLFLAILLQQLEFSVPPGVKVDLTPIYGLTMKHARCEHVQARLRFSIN
Experimental: (§1) Experimental objective: To evaluate the inhibitory activity of the test substance on human liver microsomal cytochrome P450 isoenzymes (CYP1A2, CYP2C9, CYP2C19, CYP2D6, CYP3A4) using a 5-in-1 probe substrate for CYP isoenzymes.
(§2) Mixed human liver microsomes (HLM) were purchased from Corning Inc. (Steuben, New York, USA) and stored at temperatures below −70° C. prior to use.
(§3) The working solution of the test substance, which had been diluted to a series of concentrations, was added to an incubation system containing human liver microsomes, probe substrates, and auxiliary factors of the circulatory system. A control containing solvent but no test substance served as an enzyme activity control (100%). The concentration of metabolites produced from probe substrates in the samples was determined using Liquid Chromatography-Tandem Mass Spectrometry (LC-MS/MS) method. Non-linear regression analysis of the average percentage activity of the test substance against its concentration was conducted using SigmaPlot (V.11). The IC50 values were calculated using a three-parameter or four-parameter inverse log equation.

CYP2C19 = target: T2, CYP2C19 (Homo sapiens, UniProt P33261); assay: Human liver microsome CYP inhibition assay, CYP2C19; format: in vitro ADME; settings: role: inhibitor; human liver microsomes, probe substrate; read-out: CYP2C19 half maximal inhibitory concentration IC50
T2 construct: Mixed human liver microsomes (HLM) were purchased from Corning Inc; tissue Corning Inc; host or cells: mixed human liver microsomes (HLM)
Experimental: as §1, §2, §3

T2 sequence (P33261 whole entry): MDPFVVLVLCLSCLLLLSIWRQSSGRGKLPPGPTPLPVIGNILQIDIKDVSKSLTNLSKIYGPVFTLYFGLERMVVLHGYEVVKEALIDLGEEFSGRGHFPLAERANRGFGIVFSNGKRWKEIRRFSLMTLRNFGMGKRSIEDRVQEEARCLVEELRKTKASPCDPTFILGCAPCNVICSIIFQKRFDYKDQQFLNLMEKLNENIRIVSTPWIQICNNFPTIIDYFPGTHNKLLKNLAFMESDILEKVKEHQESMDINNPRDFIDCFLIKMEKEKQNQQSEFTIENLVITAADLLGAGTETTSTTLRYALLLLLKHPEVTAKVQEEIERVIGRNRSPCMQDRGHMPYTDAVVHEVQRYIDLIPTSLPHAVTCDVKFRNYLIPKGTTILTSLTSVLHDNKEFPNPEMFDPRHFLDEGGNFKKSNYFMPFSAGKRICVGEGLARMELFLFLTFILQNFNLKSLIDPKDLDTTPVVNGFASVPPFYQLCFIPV

bioavailability [1]: 67%
half-life [1]: 5.75 h
Cmax [1]: 1320 nM
AUC(0-t) at 24 h ([1]; read-out: AUC0-24 h): 10 µM·h
efflux ratio at 2.5 h, 2 µM ([2]; MDCK-MDR1, pH 7.4, ER=Papp(BA)/Papp(AB)): 1.88
Papp A→B at 2.5 h, 2 µM ([2]; MDCK-MDR1, pH 7.4, pH 7.40, 2.5 hours, 37±1° C., read-out: Apparent permeability coefficient (Papp (AB))): 10.7 ×10⁻⁶ cm/s
fraction unbound at 4 h [3]: 0.354
IC50 (CYP1A2): > 50 µM
IC50 (CYP2C19): > 50 µM
Compound: CCC(=O)N[C@H]1CCOc2c(-c3ccc4c(c3)CCC(=O)N4C)cncc21 (single isomer, unassigned) [Compound 037]
